Source: PubChem BioAssay AID256 (DTP/NCI, 2004)
Several values for one entry are separate records, joined by “and”; a condition that tells them apart may be missing. Equal entries are not always repeated. Inconclusive results and toxic doses are left out. How the source made its calls: active means survival T/C of 150% or more; inactive means T/C below 125% in these data.

Test system: CD2F1 mice, L1210 leukemia ip, survival T/C
Assay: NCI In Vivo Anticancer Drug Screen. Data for tumor model L1210 Leukemia (intraperitoneal) in CD2F1 (CDF1) mice
Settings: higher = longer survival
Method in brief: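 Activity against a transplanted murine tumor was judged by comparing the compound group with a vehicle group. The outcome in the treated animals was divided by that in the controls.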

[1] = endpoint: mean survival time, dose: 25.0 mg/kg/injection, schedule: Q01DX009 (ip), vehicle: saline with Tween-80
[2] = endpoint: mean survival time, dose: 100.0 mg/kg/injection, schedule: Q01DX001 (ip), vehicle: saline with Tween-80
[3] = endpoint: mean survival time, dose: 100.0 mg/kg/injection, schedule: Q04DX003 (ip), vehicle: saline
[4] = endpoint: mean survival time, dose: 200.0 mg/kg/injection, schedule: Q04DX003 (ip), vehicle: saline
[5] = endpoint: mean survival time, dose: 100.0 mg/kg/injection, schedule: Q04DX003 (ip), vehicle: saline with Tween-80
[6] = endpoint: mean survival time, dose: 200.0 mg/kg/injection, schedule: Q04DX003 (ip), vehicle: saline with Tween-80
[7] = endpoint: mean survival time, dose: 400.0 mg/kg/injection, schedule: Q04DX003 (ip), vehicle: saline with Tween-80
[8] = endpoint: mean survival time, dose: 200.0 mg/kg/injection, schedule: Q01DX009 (ip), vehicle: saline with Tween-80
[9] = endpoint: mean survival time, dose: 100.0 mg/kg/injection, schedule: Q01DX009 (ip), vehicle: saline
[10] = endpoint: mean survival time, dose: 200.0 mg/kg/injection, schedule: Q01DX009 (ip), vehicle: saline
[11] = endpoint: mean survival time, dose: 400.0 mg/kg/injection, schedule: Q01DX009 (ip), vehicle: saline
[12] = endpoint: mean survival time, dose: 100.0 mg/kg/injection, schedule: Q04DX002 (ip), vehicle: saline with Tween-80
[13] = endpoint: mean survival time, dose: 200.0 mg/kg/injection, schedule: Q01DX001 (ip), vehicle: saline with Tween-80
[14] = endpoint: mean survival time, dose: 200.0 mg/kg/injection, schedule: Q04DX002 (ip), vehicle: saline with Tween-80
[15] = endpoint: mean survival time, dose: 400.0 mg/kg/injection, schedule: Q01DX001 (ip), vehicle: saline with Tween-80
[16] = endpoint: mean survival time, dose: 400.0 mg/kg/injection, schedule: Q04DX002 (ip), vehicle: saline with Tween-80

Measured: T/C

CN1CCCC1CCNc1nc(Nc2ccc(Cl)c(Cl)c2)nc2ccc(Cl)cc12 (centres undefined)
inactive: [1] 97 % of control | [2] 103 % of control

COc1cccc2c1CCC1C2CC=C2CC3(CCC21C)OCCO3 (centres undefined)
inactive: endpoint: mean survival time, dose: 100.0 mg/kg/injection, schedule: Q04DX003 (sc), vehicle: steriod suspending solution 97 % of control | endpoint: mean survival time, dose: 200.0 mg/kg/injection, schedule: Q04DX003 (sc), vehicle: steriod suspending solution 92 % of control | endpoint: mean survival time, dose: 400.0 mg/kg/injection, schedule: Q04DX003 (sc), vehicle: steriod suspending solution 94 % of control

COc1cc2ccc(/C=C/C(=O)c3ccc4c(c3)OCO4)cc2cc1OC
inactive: endpoint: mean survival time, dose: 25.0 mg/kg/injection, schedule: Q01DX009 (ip), vehicle: water 98 % of control | endpoint: mean survival time, dose: 50.0 mg/kg/injection, schedule: Q01DX009 (ip), vehicle: water 91 % of control | endpoint: mean survival time, dose: 100.0 mg/kg/injection, schedule: Q01DX009 (ip), vehicle: water 88 % of control | endpoint: mean survival time, dose: 200.0 mg/kg/injection, schedule: Q01DX009 (ip), vehicle: water 90 % of control | endpoint: mean survival time, dose: 400.0 mg/kg/injection, schedule: Q01DX009 (ip), vehicle: water 88 % of control

CN(C)CCOCCOc1ccc(C(C)(C)CC(C)(C)C)cc1
inactive: endpoint: mean survival time, dose: 1.5 mg/kg/injection, schedule: Q01DX009 (ip), vehicle: saline with Tween-80 105 % of control | endpoint: mean survival time, dose: 3.0 mg/kg/injection, schedule: Q01DX009 (ip), vehicle: saline with Tween-80 97 % of control | endpoint: mean survival time, dose: 6.0 mg/kg/injection, schedule: Q01DX009 (ip), vehicle: saline with Tween-80 100 % of control

COCCC1(CN2c3ccccc3Sc3ccccc32)CCN(C)C1 (centres undefined)
inactive: [3] 94 % of control | [4] 96 % of control

CC(C)C1=CC23CCC4C(C)(C(=O)O)CCCC4(C)C2CC13 (centres undefined)
inactive: [5] 103 % of control | [6] 97 % of control | [7] 97 % of control

NC(CC[Se]Cc1ccccc1)C(=O)O (centres undefined)
inactive: endpoint: mean survival time, dose: 6.25 mg/kg/injection, schedule: Q01DX009 (ip), vehicle: saline with Tween-80 92 % of control | endpoint: mean survival time, dose: 12.5 mg/kg/injection, schedule: Q01DX009 (ip), vehicle: saline with Tween-80 92 % of control | [1] 92 % of control | [5] 90 % of control | [6] 86 % of control

CC1=NCCc2c1cc1c([nH]c3ccccc31)c2C
inactive: endpoint: mean survival time, dose: 44.0 mg/kg/injection, schedule: Q01DX009 (ip), vehicle: saline with Tween-80 114 % of control | endpoint: mean survival time, dose: 67.0 mg/kg/injection, schedule: Q01DX009 (ip), vehicle: saline with Tween-80 96 % of control

CC(CCC(C)OS(C)(=O)=O)OS(C)(=O)=O (centres undefined)
inactive: endpoint: mean survival time, dose: 4.0 mg/kg/injection, schedule: Q01DX009 (ip), vehicle: saline 118 % of control and 107 % of control | endpoint: mean survival time, dose: 8.0 mg/kg/injection, schedule: Q01DX009 (ip), vehicle: saline 110 % of control

CC(=O)OC1CCCCC1C (centres undefined)
inactive: endpoint: mean survival time, dose: 100.0 mg/kg/injection, schedule: Q01DX009 (ip), vehicle: saline with Tween-80 105 % of control | [5] 105 % of control | [8] 100 % of control | [6] 110 % of control | [7] 102 % of control

OCC1(O)OCC(O)C(F)C1O (centres undefined)
inactive: [9] 96 % of control | [3] 88 % of control | [10] 96 % of control | [4] 89 % of control | [11] 94 % of control | endpoint: mean survival time, dose: 400.0 mg/kg/injection, schedule: Q04DX003 (ip), vehicle: saline 91 % of control

NC1CCC(=O)NC1c1ccccc1 (centres undefined)
inactive: endpoint: mean survival time, dose: 100.0 mg/kg/injection, schedule: Q04DX002 (ip), vehicle: saline 97 % of control | endpoint: mean survival time, dose: 200.0 mg/kg/injection, schedule: Q04DX002 (ip), vehicle: saline 101 % of control | endpoint: mean survival time, dose: 400.0 mg/kg/injection, schedule: Q04DX002 (ip), vehicle: saline 101 % of control

O=C1CSC2(CCN(Cc3ccccc3)CC2)O1
inactive: endpoint: mean survival time, dose: 100.0 mg/kg/injection, schedule: Q01DX001 (ip), vehicle: saline 98 % of control | endpoint: mean survival time, dose: 200.0 mg/kg/injection, schedule: Q01DX001 (ip), vehicle: saline 102 % of control | endpoint: mean survival time, dose: 400.0 mg/kg/injection, schedule: Q01DX001 (ip), vehicle: saline 95 % of control

O=C1CCC(c2ccccc2)=NN1c1ccccc1
inactive: endpoint: mean survival time, dose: 100.0 mg/kg/injection, schedule: Q04DX003 (ip), vehicle: Klucel (hydroxypropylcellulose) (HPC) 98 % of control | endpoint: mean survival time, dose: 200.0 mg/kg/injection, schedule: Q04DX003 (ip), vehicle: Klucel (hydroxypropylcellulose) (HPC) 96 % of control | endpoint: mean survival time, dose: 400.0 mg/kg/injection, schedule: Q04DX003 (ip), vehicle: Klucel (hydroxypropylcellulose) (HPC) 96 % of control

O=C(Cc1ccccn1)Cc1ccccn1
inactive: [2] 106 % of control | [12] 100 % of control | [13] 96 % of control | [14] 100 % of control | [15] 106 % of control | [16] 104 % of control

CCOC(=O)C(N)Cc1ccc(OC)c(N(CCCl)CCCl)c1 (centres undefined)
inactive: endpoint: mean survival time, dose: 1.1 mg/kg/injection, schedule: Q01DX001 (ip), vehicle: carboxymethylcellulose (CMC) 122 % of control | endpoint: mean survival time, dose: 1.7 mg/kg/injection, schedule: Q01DX001 (ip), vehicle: carboxymethylcellulose (CMC) 120 % of control

Cc1cc(NC(=O)Oc2ccc([N+](=O)[O-])cc2)ccc1S(=O)(=O)F
inactive: [1] 91 % of control and 98 % of control | endpoint: mean survival time, dose: 50.0 mg/kg/injection, schedule: Q01DX009 (ip), vehicle: saline with Tween-80 87 % of control and 96 % of control | [2] 95 % of control | [12] 93 % of control and 100 % of control | [5] 94 % of control | [13] 101 % of control | [8] 91 % of control | [14] 93 % of control and 107 % of control | [6] 96 % of control | [15] 98 % of control | [16] 100 % of control and 103 % of control | [7] 102 % of control

NC(=O)c1csc(CSCCO)n1
inactive: endpoint: median survival time, dose: 41.75 mg/kg/injection, schedule: Q01DX005 (ip), vehicle: saline 103 % of control | endpoint: median survival time, dose: 83.5 mg/kg/injection, schedule: Q01DX005 (ip), vehicle: saline 104 % of control | endpoint: median survival time, dose: 167.0 mg/kg/injection, schedule: Q01DX005 (ip), vehicle: saline 102 % of control | endpoint: median survival time, dose: 334.0 mg/kg/injection, schedule: Q01DX005 (ip), vehicle: saline 98 % of control

C=C1C=C(C)CC(C)(C)C1 (tested in a mixture with another compound)
inactive: [9] 101 % of control | [5] 102 % of control | [10] 101 % of control | [6] 100 % of control | [11] 101 % of control | [7] 102 % of control

CC(C)C(O)(c1ccccc1)C(O)(c1ccccc1)C(C)C (centres undefined)
inactive: endpoint: mean survival time, dose: 50.0 mg/kg/injection, schedule: Q04DX002 (ip), vehicle: saline with Tween-80 100 % of control | [12] 96 % of control | [14] 100 % of control

Cc1ccc(S(=O)(=O)Nc2ccccc2-c2nc3cc(Cl)ccc3c(=O)o2)cc1
inactive: [5] 87 % of control | [6] 98 % of control | [7] 98 % of control

COc1ccc(CNC(C)(C#N)c2ccccc2)cc1OC (centres undefined)
inactive: [5] 107 % of control | [6] 93 % of control | [7] 98 % of control

COC(=O)C(C(=O)OC)(C(=O)OC)C(=O)c1ccccc1
inactive: [2] 104 % of control | [13] 96 % of control | [15] 93 % of control

CC(C)(C)OC(=O)NN=C1CCC(C(C)(C)C)CC1 (centres undefined)
inactive: [9] 93 % of control | [10] 91 % of control | [11] 98 % of control

Nc1ccccc1-c1nc2ccncc2[nH]1
inactive: endpoint: mean survival time, dose: 75.0 mg/kg/injection, schedule: Q01DX001 (ip), vehicle: saline 100 % of control | endpoint: mean survival time, dose: 150.0 mg/kg/injection, schedule: Q01DX001 (ip), vehicle: saline 98 % of control
